Test results reported in ChEMBL document CHEMBL4507319 (2021).

Assays:
[1] = target: T1, Mitogen-activated protein kinase 12 (Homo sapiens) (UniProt P53778); conditions: Compound concentration 1000.0 nM
T1 sequence (whole entry): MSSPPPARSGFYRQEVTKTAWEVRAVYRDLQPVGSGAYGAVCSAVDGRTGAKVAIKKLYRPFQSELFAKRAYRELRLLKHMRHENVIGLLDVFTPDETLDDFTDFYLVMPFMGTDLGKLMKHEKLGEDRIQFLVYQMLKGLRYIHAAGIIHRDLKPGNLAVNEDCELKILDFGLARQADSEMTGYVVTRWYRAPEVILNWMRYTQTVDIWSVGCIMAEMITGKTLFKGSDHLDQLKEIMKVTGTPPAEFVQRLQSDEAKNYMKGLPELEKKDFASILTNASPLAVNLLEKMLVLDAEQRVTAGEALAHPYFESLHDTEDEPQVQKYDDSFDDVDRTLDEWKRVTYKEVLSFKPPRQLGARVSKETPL

[2] = target: T2, Ephrin type-B receptor 3 (Homo sapiens) (UniProt P54753); conditions: Compound concentration 1000.0 nM
T2 sequence (whole entry): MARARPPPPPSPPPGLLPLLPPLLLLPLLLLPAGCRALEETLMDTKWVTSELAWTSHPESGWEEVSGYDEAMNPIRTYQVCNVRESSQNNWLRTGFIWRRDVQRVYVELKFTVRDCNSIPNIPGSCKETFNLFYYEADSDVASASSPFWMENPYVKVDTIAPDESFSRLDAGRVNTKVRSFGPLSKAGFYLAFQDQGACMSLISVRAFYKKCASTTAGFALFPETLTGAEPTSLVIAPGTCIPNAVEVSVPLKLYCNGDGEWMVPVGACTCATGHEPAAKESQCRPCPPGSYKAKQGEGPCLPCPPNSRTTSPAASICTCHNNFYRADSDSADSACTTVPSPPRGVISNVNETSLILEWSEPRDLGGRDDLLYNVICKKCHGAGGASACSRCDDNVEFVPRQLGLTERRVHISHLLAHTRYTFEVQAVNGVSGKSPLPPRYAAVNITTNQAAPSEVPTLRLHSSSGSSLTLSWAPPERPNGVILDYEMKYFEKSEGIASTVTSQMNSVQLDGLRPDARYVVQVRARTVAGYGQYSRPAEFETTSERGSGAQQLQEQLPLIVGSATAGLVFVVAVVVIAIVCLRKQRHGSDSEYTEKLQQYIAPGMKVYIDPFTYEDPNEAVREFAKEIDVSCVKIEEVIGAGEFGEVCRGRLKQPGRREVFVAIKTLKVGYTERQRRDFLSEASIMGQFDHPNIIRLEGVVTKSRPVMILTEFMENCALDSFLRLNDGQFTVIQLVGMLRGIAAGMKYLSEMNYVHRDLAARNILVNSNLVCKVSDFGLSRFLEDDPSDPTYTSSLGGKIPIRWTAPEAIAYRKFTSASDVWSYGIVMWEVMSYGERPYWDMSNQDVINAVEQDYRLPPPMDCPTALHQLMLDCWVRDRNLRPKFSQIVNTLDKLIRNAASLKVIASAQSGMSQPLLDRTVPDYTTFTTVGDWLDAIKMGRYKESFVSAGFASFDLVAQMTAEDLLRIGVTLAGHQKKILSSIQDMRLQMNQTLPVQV

[3] = target: 5-hydroxytryptamine receptor 1A (Homo sapiens) (UniProt P08908); conditions: Compound concentration 10.0 uM
[4] = target: MAP kinase-interacting serine/threonine-protein kinase 2 (Homo sapiens) (UniProt Q9HBH9); conditions: Compound concentration 1000.0 nM
[5] = target: Interferon-induced, double-stranded RNA-activated protein kinase (Homo sapiens) (UniProt P19525); conditions: Compound concentration 1000.0 nM
[6] = target: Homeodomain-interacting protein kinase 2 (Homo sapiens) (UniProt Q9H2X6); conditions: Compound concentration 1000.0 nM
[7] = target: Serine/threonine-protein kinase mTOR (Homo sapiens) (UniProt P42345); conditions: Compound concentration 1000.0 nM
[8] = target: Cyclin-dependent kinase 2 (Homo sapiens) (UniProt P24941); conditions: Compound concentration 1000.0 nM
[9] = target: Serine/threonine-protein kinase/endoribonuclease IRE1 (Homo sapiens) (UniProt O75460); conditions: Compound concentration 1000.0 nM
[10] = target: T3, Activin receptor type-1 (Homo sapiens) (UniProt Q04771); conditions: Compound concentration 1000.0 nM
T3 sequence (whole entry): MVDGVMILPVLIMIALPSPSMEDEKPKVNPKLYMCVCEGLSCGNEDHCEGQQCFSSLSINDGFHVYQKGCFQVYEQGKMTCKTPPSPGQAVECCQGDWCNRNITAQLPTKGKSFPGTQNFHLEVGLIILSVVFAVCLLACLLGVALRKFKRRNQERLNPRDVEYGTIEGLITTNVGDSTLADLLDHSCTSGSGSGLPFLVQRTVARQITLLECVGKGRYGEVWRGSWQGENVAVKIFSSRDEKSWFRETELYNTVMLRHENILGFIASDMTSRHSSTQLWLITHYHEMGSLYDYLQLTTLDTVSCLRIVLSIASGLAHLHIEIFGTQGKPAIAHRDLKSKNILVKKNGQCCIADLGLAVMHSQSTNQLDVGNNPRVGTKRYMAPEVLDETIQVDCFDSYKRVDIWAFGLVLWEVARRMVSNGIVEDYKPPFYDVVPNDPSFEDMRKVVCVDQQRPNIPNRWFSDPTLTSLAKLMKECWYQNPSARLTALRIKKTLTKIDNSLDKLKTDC

[11] = target: D(3) dopamine receptor (Homo sapiens) (UniProt P35462); conditions: Compound concentration 10.0 uM
[12] = target: Tyrosine-protein kinase FRK (Homo sapiens) (UniProt P42685); conditions: Compound concentration 1000.0 nM
[13] = system: Phosphatidylinositol 4,5-bisphosphate 3-kinase catalytic subunit alpha isoform (Homo sapiens), P42336 [E542K]; conditions: Compound concentration 1000.0 nM
[14] = target: Protein-tyrosine kinase 2-beta (Homo sapiens) (UniProt Q14289); conditions: Compound concentration 1000.0 nM
[15] = target: Mitogen-activated protein kinase kinase kinase kinase 2 (Homo sapiens) (UniProt Q12851); conditions: Compound concentration 1000.0 nM
[16] = target: Fibroblast growth factor receptor 1 (Homo sapiens) (UniProt P11362); conditions: Compound concentration 1000.0 nM
Fibroblast growth factor receptor 1 (Homo sapiens), sequence (P11362 22-822 limits assumed): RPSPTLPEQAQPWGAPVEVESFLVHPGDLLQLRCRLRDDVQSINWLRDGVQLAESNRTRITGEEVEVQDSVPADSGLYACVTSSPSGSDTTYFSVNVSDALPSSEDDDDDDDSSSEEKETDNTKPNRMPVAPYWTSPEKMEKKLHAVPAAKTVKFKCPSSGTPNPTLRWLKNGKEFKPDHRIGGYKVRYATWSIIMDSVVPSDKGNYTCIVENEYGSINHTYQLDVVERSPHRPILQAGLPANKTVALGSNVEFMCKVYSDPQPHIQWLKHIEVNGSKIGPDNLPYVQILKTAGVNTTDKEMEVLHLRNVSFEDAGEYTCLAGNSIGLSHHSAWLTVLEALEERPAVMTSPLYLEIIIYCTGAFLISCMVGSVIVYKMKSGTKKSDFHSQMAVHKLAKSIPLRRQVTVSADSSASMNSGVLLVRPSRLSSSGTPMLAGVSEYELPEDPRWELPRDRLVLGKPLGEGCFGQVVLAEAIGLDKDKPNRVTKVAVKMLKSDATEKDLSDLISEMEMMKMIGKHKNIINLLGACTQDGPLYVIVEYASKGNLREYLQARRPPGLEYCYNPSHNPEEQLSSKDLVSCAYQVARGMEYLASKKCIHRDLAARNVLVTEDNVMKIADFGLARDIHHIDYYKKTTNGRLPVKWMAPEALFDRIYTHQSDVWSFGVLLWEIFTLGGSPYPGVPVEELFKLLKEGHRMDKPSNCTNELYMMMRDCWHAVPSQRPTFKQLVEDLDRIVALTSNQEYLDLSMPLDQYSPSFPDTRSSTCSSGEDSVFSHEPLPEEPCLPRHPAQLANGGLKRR

Homeodomain-interacting protein kinase 2 (Homo sapiens), sequence (Q9H2X6 whole entry, looked up): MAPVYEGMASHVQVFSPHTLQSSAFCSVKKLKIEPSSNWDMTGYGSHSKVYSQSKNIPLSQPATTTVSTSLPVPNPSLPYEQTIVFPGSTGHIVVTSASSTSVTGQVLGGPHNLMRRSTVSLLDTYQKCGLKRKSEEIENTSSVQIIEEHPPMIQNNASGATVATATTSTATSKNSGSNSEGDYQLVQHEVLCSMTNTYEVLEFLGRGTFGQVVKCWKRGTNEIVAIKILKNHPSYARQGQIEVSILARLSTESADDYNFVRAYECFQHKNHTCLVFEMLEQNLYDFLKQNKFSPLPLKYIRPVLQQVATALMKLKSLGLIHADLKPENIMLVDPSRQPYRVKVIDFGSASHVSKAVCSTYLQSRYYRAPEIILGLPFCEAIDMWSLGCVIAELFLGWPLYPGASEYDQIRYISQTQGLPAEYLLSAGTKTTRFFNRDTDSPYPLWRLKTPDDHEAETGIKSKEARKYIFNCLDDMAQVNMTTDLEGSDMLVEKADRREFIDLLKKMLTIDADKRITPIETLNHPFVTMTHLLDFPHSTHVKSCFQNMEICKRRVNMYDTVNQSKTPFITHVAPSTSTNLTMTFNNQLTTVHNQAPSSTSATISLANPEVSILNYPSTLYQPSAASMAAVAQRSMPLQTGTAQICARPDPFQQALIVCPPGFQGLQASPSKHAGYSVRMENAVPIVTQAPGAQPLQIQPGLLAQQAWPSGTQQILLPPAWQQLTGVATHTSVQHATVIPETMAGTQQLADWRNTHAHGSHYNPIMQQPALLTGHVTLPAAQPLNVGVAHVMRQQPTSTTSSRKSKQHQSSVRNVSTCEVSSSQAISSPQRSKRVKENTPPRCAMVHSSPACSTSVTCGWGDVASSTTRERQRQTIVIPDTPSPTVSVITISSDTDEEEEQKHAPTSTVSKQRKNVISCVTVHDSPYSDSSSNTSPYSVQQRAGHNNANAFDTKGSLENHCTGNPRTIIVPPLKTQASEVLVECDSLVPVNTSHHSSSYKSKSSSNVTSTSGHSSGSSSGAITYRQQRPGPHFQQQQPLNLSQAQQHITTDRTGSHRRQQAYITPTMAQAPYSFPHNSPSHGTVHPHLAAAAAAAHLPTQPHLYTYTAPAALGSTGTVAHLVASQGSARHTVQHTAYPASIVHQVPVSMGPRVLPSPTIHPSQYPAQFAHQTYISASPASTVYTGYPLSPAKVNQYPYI
Serine/threonine-protein kinase/endoribonuclease IRE1 (Homo sapiens), sequence (O75460 19-977 limits assumed): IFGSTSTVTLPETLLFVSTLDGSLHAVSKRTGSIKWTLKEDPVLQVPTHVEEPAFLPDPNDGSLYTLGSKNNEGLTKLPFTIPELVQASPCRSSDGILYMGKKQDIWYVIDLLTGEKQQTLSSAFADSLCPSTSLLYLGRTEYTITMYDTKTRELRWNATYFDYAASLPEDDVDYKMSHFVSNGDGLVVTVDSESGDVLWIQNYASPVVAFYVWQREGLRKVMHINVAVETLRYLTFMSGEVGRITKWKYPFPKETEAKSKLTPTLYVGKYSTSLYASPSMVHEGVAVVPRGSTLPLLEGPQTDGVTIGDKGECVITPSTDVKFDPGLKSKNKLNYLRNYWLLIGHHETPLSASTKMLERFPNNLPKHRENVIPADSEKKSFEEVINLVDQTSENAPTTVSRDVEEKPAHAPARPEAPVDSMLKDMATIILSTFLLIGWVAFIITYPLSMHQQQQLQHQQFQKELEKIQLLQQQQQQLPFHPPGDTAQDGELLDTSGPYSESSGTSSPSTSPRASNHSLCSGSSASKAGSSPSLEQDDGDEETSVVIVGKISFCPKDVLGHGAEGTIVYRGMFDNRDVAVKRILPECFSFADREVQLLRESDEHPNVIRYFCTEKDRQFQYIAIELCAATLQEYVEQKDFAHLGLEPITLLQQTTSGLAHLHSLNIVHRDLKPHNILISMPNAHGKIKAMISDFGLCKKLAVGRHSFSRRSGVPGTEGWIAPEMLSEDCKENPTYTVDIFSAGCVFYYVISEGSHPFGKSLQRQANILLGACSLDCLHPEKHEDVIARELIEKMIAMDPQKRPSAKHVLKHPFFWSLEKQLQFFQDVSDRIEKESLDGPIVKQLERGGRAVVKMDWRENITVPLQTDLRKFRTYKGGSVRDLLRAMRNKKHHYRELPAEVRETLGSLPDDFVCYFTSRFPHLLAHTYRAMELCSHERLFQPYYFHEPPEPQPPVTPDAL
MAP kinase-interacting serine/threonine-protein kinase 2 (Homo sapiens), sequence (Q9HBH9 whole entry, looked up): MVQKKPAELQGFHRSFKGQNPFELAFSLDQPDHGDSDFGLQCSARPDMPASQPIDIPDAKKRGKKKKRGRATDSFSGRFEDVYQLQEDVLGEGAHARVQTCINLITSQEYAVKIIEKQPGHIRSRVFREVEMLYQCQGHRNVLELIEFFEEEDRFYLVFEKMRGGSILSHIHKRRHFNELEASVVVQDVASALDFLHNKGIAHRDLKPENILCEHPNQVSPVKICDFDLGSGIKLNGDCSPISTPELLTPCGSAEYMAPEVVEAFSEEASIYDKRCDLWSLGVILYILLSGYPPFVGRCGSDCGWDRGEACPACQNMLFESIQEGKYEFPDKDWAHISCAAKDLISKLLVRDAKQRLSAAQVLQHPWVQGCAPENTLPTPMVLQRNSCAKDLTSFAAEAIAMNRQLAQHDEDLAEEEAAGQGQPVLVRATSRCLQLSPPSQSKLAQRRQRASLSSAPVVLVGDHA
Interferon-induced, double-stranded RNA-activated protein kinase (Homo sapiens), sequence (P19525 whole entry): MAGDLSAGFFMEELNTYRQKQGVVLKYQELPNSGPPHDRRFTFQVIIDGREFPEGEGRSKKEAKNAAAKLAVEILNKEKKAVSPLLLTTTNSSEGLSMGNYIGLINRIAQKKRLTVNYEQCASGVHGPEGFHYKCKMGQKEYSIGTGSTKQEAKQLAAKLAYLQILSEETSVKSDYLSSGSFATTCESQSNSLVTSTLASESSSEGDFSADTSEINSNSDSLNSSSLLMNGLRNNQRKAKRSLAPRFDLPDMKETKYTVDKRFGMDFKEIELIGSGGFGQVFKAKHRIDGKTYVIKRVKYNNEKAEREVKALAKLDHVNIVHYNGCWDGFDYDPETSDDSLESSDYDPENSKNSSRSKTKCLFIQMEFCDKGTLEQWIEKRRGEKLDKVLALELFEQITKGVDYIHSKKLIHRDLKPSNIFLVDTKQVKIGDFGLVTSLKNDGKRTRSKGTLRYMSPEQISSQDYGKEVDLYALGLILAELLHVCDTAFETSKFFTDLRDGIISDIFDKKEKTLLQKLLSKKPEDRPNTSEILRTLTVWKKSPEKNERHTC
Protein-tyrosine kinase 2-beta (Homo sapiens), sequence (Q14289 whole entry, looked up): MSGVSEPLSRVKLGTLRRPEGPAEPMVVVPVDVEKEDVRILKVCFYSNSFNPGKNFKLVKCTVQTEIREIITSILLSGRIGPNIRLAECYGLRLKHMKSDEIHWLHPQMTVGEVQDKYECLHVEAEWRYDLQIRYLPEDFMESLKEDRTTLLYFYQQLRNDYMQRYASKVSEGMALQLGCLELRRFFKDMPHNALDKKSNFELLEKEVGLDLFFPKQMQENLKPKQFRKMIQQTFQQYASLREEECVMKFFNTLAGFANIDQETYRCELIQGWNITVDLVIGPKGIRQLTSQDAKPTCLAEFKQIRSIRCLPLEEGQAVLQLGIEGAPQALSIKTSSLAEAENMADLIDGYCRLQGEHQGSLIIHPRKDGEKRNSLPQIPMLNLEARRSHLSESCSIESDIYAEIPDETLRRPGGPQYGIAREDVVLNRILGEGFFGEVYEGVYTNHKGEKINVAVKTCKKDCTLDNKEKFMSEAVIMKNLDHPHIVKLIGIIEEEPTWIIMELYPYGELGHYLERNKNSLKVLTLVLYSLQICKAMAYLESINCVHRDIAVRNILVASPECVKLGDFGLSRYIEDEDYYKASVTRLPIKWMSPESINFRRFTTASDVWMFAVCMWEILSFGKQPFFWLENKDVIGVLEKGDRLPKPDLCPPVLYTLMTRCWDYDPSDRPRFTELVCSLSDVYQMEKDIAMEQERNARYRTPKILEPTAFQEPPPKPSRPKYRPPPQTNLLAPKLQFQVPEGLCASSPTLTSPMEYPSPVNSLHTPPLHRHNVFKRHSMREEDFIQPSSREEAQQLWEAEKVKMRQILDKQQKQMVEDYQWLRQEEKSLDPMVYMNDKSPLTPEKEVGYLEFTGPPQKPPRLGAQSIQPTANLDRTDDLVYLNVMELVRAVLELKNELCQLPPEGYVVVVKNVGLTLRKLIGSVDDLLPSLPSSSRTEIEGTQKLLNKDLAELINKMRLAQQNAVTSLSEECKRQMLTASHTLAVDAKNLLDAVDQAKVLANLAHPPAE

CCc1ccccc1C(=O)Nc1n[nH]c2c(C)c(F)c(C3C(C#N)=C(C)N(C)C(C)=C3C#N)cc12 [BAY-3827]
inactive: residual activity [1] 76% | residual activity [2] 57% | inhibition [3] 5.2% | residual activity [4] 98% | residual activity [5] 100% | residual activity [6] 100% | residual activity [7] 100% | residual activity [8] 100% | residual activity [9] 70% | residual activity [10] 100% | inhibition [11] 10.4% | residual activity [12] 100% | residual activity [13] 54% | residual activity [14] 92% | residual activity [15] 100% | residual activity [16] 97%

CC1=C(C#N)C(c2ccc3c(c2)c(NC(=O)c2ccccc2C)nn3C)C(C#N)=C(C)N1 [BAY-974]
inactive: residual activity [1] 68% | residual activity [2] 99% | inhibition [3] 8.55% | residual activity [4] 100% | residual activity [5] 100% | residual activity [6] 73% | residual activity [7] 75% | residual activity [8] 86% | residual activity [9] 84% | residual activity [10] 99% | inhibition [11] 2.48% | residual activity [12] 100% | residual activity [13] 91% | residual activity [14] 83% | residual activity [15] 99% | residual activity [16] 97%
